Source: ChEMBL document CHEMBL1629535, “Novel small molecule inhibitors of MDR Mycobacterium tuberculosis by NMR fragment screening of antigen 85C” (2010)
In brackets after ≈: the same amount, converted by molar mass.

What was measured:
Type in all cases: functional
[1] = test system: Mycolicibacterium smegmatis; test: Growth inhibition of Mycobacterium smegmatis
[2] = test system: Mycobacterium tuberculosis; test: Growth inhibition of Mycobacterium tuberculosis H37 by radiometric BACTEC 460 assay
[3] = test system: Mycolicibacterium aurum; test: Growth inhibition of multidrug resistance Mycobacterium aurum

Structure (SMILES)	MIC [1] [µg/mL]	MIC [2] [µg/mL]	MIC [3] [µg/mL]
CCCOc1ccc2nc(N)sc2c1	32 (≈ 154 µM)	20 (≈ 96 µM)	
CCC1CCc2c(sc(N)c2C(N)=O)C1 (configuration not stated)	64 (≈ 285 µM)		
CCC1CCc2c(sc(N)c2C#N)C1 (configuration not stated)	32 (≈ 155 µM)	50 (≈ 242 µM)	
CC1CCc2c(sc(N)c2C(N)=O)C1 (configuration not stated)	> 32		
N#Cc1c(N)sc2c1CCCCC2	64 (≈ 333 µM)	> 500	
[N-]=[N+]=NC[C@H]1O[C@H](O[C@H]2O[C@H](CO)[C@@H](O)[C@H](O)[C@H]2O)[C@H](O)[C@@H](O)[C@@H]1O			200 (≈ 544 µM)
CCCC1CCc2c(sc(N)c2C(N)=O)C1 (configuration not stated)	64 (≈ 269 µM)		
CCCC1CCc2c(sc(N)c2C#N)C1 (configuration not stated)	16 (≈ 72.6 µM)	50 (≈ 227 µM)	
